From patent US20130005749A1, “NOVEL FORMULATION AND TREATMENT METHODS” (The University of Queensland, priority 2011, published 2013)

How the values were obtained:
ulcerative colitis = assay: Human patient R-LS with ulcerative colitis
Experimental: Because treatment with AZA and 6-MP was not an option, they were treated instead with 6-TG using the conventional therapeutic protocol, namely bolus administration of 40 mg per day (R-LS weighs approximately 60 kg) and 5-aminosalicylic acid.
Again, they were treated with 6-TG using the conventional therapeutic protocol, namely bolus administration of 40 mg per day and balsalazide. […] Maintenance therapy to prevent relapse was again prescribed using a lower dose of balsalazide.
Given their clinical history, the inventors were reluctant to prescribe another bolus dose of 6-TG due to the known hepatotoxic side-effects that could occur.
Accordingly, R-LS was given 60 mg per day 6-TG in a divided dosage (3 separate doses of equal amounts). The doses were given at intervals throughout the day.

[1] = tested on: inflammatory bowel disease; settings: after one year; Ansari et al. 2008; cited from earlier work
acute childhood leukemia = settings: cited from earlier work; for prevalence of VOD in patients: acute childhood leukemia cases, Stork et al. 2010
HPRT−/− C57BL/6 mice = assay: VOD score in HPRT-/- mouse model; type: in vivo; settings: all dosage levels including 1 and 2.5 mg/kg body weight, gavage each day for 14 days
Text: (§1) The total possible VOD score was 240.

[2] = tested on: Winnie (C57Bl/6 Muc2 Winnie/Winnie) mice; assay: Histological colitis scores in Winnie mouse model of spontaneous colitis; type: in vivo
Experimental: This experiment usesa mouse model of spontaneous colitis called Winnie(C57Bl/6 Muc2^Winnie/Winnie) due to a single SNP mutation in Muc2 in C57Bl/6 mice. The model resembles ulcerative colitis. The mutation confers an intestinal epithelial cell defect, which causes a Th17 dominant inflammatory response (Heazlewood et al. 2008 and Eri et al. 2011).
(§2) Male or female C57Bl/6 Winnie mice were gavaged twice daily for 11-days in an experiment with three groups (6 animals per group):
(§3) Group 1: 1.25 mg/kg 6TG evening and morning (total 2.5 mg/kg/d, N=6)
Group 2: vehicle control twice daily (N=6), or
(§4) Group 3: 2.5 mg/kg/d 6TG in the morning and vehicle gavage in the afternoon ([…]).
This experiment uses Winnie(C57Bl/6 Muc2^Winnie/Winnie).
(§5) Male or female C57Bl/6 Winnie mice were gavage once daily for 28-days in an experiment with two groups (6 animals per group):
(§6) Group 1: 0.5 mg/kg 6TG once daily gavage
Group 2: vehicle control (N=6),

[3] = tested on: Winnie (C57Bl/6 Muc2 Winnie/Winnie) mice; assay: SOS in Winnie mice; type: in vivo
Experimental: as §1, §2, §3, §4, §5, §6

[4] = tested on: Winnie (C57Bl/6 Muc2 Winnie/Winnie) mice; assay: Immunosuppression (venous blood leukocytes) and myelotoxicity in Winnie mice; type: in vivo; settings: for immunosuppression (reductions in venous blood leukocytes): 11 days
Experimental: as §2, §3, §4, §5, §6

C57BL/6 mice = assay: Veno-occlusive disease (VOD/SOS) blinded histological score in C57BL/6 mice; settings: 10 days
Text: Veno-occlusive disease (or “VOD”) in each mouse was scored in a blinded fashion based on predetermined scoring criteria for sinusoidal endothelial damage (maximum 60), hepatic central vein damage (maximum 60) and inflammatory cell infiltrates using haematoxylin-eosin sections counterstained with vWF for endothelial cells and F4/80 for macrophages (maximum 120). The total possible VOD score was 240.
VOD was scored using the method described in Example 1.
Two groups of C57BL/6 mice were administered a large bolus dose of 6-TG (2.5 mg/kg body weight/day) either (1) orally (by gavage) or (2) intraperitoneally for a period of 10 days.
VOD in each mouse was then scored using the method described in Example 1.

[5] = 0.5 mg/kg once daily gavage, 28 days

In the case of Cn1cnc([N+](=O)[O-])c1Sc1ncnc2nc[nH]c12 [AZA, 6-(3-methyl-5-nitroimidazol-4-yl)sulfanyl-7H-purine], the adverse reactions (ulcerative colitis; human, in vivo) is listed as “life-threatening adverse reactions” and the “patients who stop therapy due to side-effects or non-responsiveness” value [1] is listed as “approximately 40%”.

For Sc1ncnc2nc[nH]c12 [Formulation 6-MP, 3,7-dihydropurine-6-thione], the adverse reactions (ulcerative colitis; human, in vivo) is given as “life-threatening adverse reactions”, the “prevalence of VOD in patients” value (acute childhood leukemia) is given as “not observed” and the “patients who stop therapy due to side-effects or non-responsiveness” value [1] is given as “approximately 40%”.

For Nc1nc2nc[nH]c2c(=S)[nH]1 [Formulation 6-TG, 2-amino-6,7-dihydro-3H-purine-6-thione], the VOD score (HPRT−/− C57BL/6 mice) was “VOD was shown to be abrogated”, the Histological colitis scores ([2]; 0.5 mg/kg/d once daily gavage, 28 days) was “significantly improved spontaneous colitis” and the Histological colitis scores ([2]; 1.25 mg/kg twice daily gavage, 11 days) was “significantly improved spontaneous colitis”. For the same compound, the Histological colitis scores ([2]; 2.5 mg/kg/d gavaged once daily, 11 days) was “significantly improved spontaneous colitis”, the SOS [3, 5] was “did not occur” and the SOS ([3]; 2.5 mg/kg/d once daily gavage × 11 days) was “causes SOS”. The SOS ([3]; split 1.25 mg/kg b.d dose, 11 days) was “SOS is largely avoided”, the Immunosuppression [4, 5] was “mild” and the myelotoxicity [4, 5] was “did not have myelotoxicity”. The “immunosuppression (reductions in venous blood leukocytes)” value ([4]; single full dosing 2.5 mg/kg/d) was “moderate immunosuppression”, the “immunosuppression (reductions in venous blood leukocytes)” value ([4]; split dosing 1.25 mg/kg twice daily) was “moderate immunosuppression” and the “response to the treatment” value (ulcerative colitis; 60 mg per day in 3 separate equal doses, six months (relapse December 2010)) was “once again effective”. The “response to the treatment” value (ulcerative colitis; bolus 40 mg per day with 5-aminosalicylic acid, after 4 months (2003)) was “extremely positive response”, the “response to the treatment” value (ulcerative colitis; bolus 40 mg per day with balsalazide, ~5-6 months (relapse 2006)) was “positive response” and the “clinical effectiveness in treating the disease compared with 6-MP” value (acute childhood leukemia; Stork et al. 2010 (and others)) was “equivalent or even more clinically effective”. The “prevalence of VOD in patients” value (acute childhood leukemia) was “high prevalence of VOD”, the VOD (C57BL/6 mice; 2.5 mg/kg body weight/day bolus by oral gavage) was “exhibited VOD” and the VOD (C57BL/6 mice; 2.5 mg/kg body weight/day bolus intraperitoneally) was “VOD was not observed”.

With O=C(O)c1cc(/N=N/c2ccc(S(=O)(=O)Nc3ccccn3)cc2)ccc1O [sulfasalazine] the adverse reactions (ulcerative colitis; patient history before 2003) was “life-threatening adverse reactions”.
